Assays:
[1] = system: wheat (Triticum aestivum); experiment: Upland soil treatment (Test Example 2), crop; assay type: in vivo; conditions: soil surface treatment next day after sowing, 1 kg active ingredient per hectare, evaluated 21st day, lower index = higher safety
How it was run: (§1)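 Index rating at day 21 after a single pre-emergence soil-surface application, 1 kg a.i./ha, made the day after sowing in upland soil; for crops a lower index indicates higher safety.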

soybean (Glycine max) [2] = experiment: Upland soil treatment (Test Example 2), crop; assay type: in vivo; conditions: soil surface treatment next day after sowing, 1 kg active ingredient per hectare, evaluated 21st day, lower index = higher safety
How it was run: as §1

Ammannia multiflora = experiment: Paddy field treatment (Test Example 3); assay type: in vivo; conditions: paddy pot, submerged 4 cm, dropped on water surface 10th day after transplantation, 1 kg active ingredient per hectare, evaluated 21st day
How it was run: (§2)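 Index scoring of herbicidal effect and rice safety 21 days after treatment. The wettable powder, dosed at 1 kg a.i./ha, was dripped onto flooded pots (4 cm water) 10 days after transplanting two-leaf Koshihikari rice. Weed seeds had been sown into the puddled soil.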

Monochoria vaginalis = experiment: Paddy field treatment (Test Example 3); assay type: in vivo; conditions: paddy pot, submerged 4 cm, dropped on water surface 10th day after transplantation, 1 kg active ingredient per hectare, evaluated 21st day
How it was run: as §2

Scirpus juncoides = experiment: Paddy field treatment (Test Example 3); assay type: in vivo; conditions: paddy pot, submerged 4 cm, dropped on water surface 10th day after transplantation, 1 kg active ingredient per hectare, evaluated 21st day
How it was run: as §2

Chenopodium album [3] = experiment: Upland field foliage treatment (Test Example 1); assay type: in vivo; conditions: foliage treatment 14th day after sowing, wettable powder, 1 kg active ingredient per hectare, evaluated 21st day after application
How it was run: (§3)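 Scored on an index 21 days after treatment: a high value on weeds means more herbicidal effect, and a low value on crops means more crop safety. Treatment was a foliar spray of water-diluted wettable powder at 1 kg a.i./ha, applied to plants 14 days after sowing in upland soil.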

Setaria viridis [4] = experiment: Upland field foliage treatment (Test Example 1); assay type: in vivo; conditions: foliage treatment 14th day after sowing, wettable powder, 1 kg active ingredient per hectare, evaluated 21st day after application
How it was run: as §3

Stellaria media [5] = experiment: Upland field foliage treatment (Test Example 1); assay type: in vivo; conditions: foliage treatment 14th day after sowing, wettable powder, 1 kg active ingredient per hectare, evaluated 21st day after application
How it was run: as §3

Digitaria adscendens [6] = experiment: Upland field foliage treatment (Test Example 1); assay type: in vivo; conditions: foliage treatment 14th day after sowing, wettable powder, 1 kg active ingredient per hectare, evaluated 21st day after application
How it was run: as §3

Echinochloa spp. = experiment: Paddy field treatment (Test Example 3); assay type: in vivo, Echinochloa crusgalli; conditions: paddy pot, submerged 4 cm, dropped on water surface 10th day after transplantation, 1 kg active ingredient per hectare, evaluated 21st day
How it was run: as §2

[7] = system: wheat (Triticum aestivum); experiment: Upland field foliage treatment (Test Example 1), crop; assay type: in vivo; conditions: foliage treatment 14th day after sowing, 1 kg active ingredient per hectare, evaluated 21st day, lower index = higher safety
How it was run: as §3

soybean (Glycine max) [8] = experiment: as above; assay type: in vivo; conditions: foliage treatment 14th day after sowing, 1 kg active ingredient per hectare, evaluated 21st day, lower index = higher safety
How it was run: as §3

[9] = system: rice (Oryza sative, variety: Koshihikari); experiment: Paddy field treatment (Test Example 3), crop; assay type: in vivo, Oryza sativa; conditions: transplanted rice two-leaf period, water surface treatment 10th day after transplantation, 1 kg active ingredient per hectare, evaluated 21st day, lower index = higher safety
How it was run: as §2

Chenopodium album [10] = experiment: Upland soil treatment (Test Example 2); assay type: in vivo; conditions: soil surface treatment next day after sowing, wettable powder, 1 kg active ingredient per hectare, evaluated 21st day after application
How it was run: as §1

Setaria viridis [11] = experiment: Upland soil treatment (Test Example 2); assay type: in vivo; conditions: soil surface treatment next day after sowing, wettable powder, 1 kg active ingredient per hectare, evaluated 21st day after application
How it was run: as §1

Stellaria media [12] = experiment: Upland soil treatment (Test Example 2); assay type: in vivo; conditions: soil surface treatment next day after sowing, wettable powder, 1 kg active ingredient per hectare, evaluated 21st day after application
How it was run: as §1

Digitaria adscendens [13] = experiment: Upland soil treatment (Test Example 2); assay type: in vivo; conditions: soil surface treatment next day after sowing, wettable powder, 1 kg active ingredient per hectare, evaluated 21st day after application
How it was run: as §1

COC=C(Cn1cc(C)c(-c2ccccc2)n1)C(=O)OC [Compound 13]
Herbicidal activity Triticum aestivum [1]: 0 (herbicidal effect of not less than 0% by weight and less than 10% by weight) | Herbicidal activity Glycine max (soybean (Glycine max) [2]): 0 (herbicidal effect of not less than 0% by weight and less than 10% by weight) | Herbicidal activity Ammannia multiflora (Ammannia multiflora): 5 (herbicidal effect of not less than 90% by weight) | Herbicidal activity Monochoria vaginalis (Monochoria vaginalis): 5 (herbicidal effect of not less than 90% by weight) | Herbicidal activity Scirpus juncoides (Scirpus juncoides): 5 (herbicidal effect of not less than 90% by weight) | Herbicidal activity Chenopodium album (Chenopodium album [3]): 5 (herbicidal effect of not less than 90% by weight) | Herbicidal activity Setaria viridis (Setaria viridis [4]): 5 (herbicidal effect of not less than 90% by weight) | Herbicidal activity Stellaria media (Stellaria media [5]): 5 (herbicidal effect of not less than 90% by weight) | Herbicidal activity Digitaria adscendens (Digitaria adscendens [6]): 5 (herbicidal effect of not less than 90% by weight) | Herbicidal activity Echinochloa spp. (Echinochloa spp.): 5 (herbicidal effect of not less than 90% by weight) | Herbicidal activity Triticum aestivum [7]: 0 (herbicidal effect of not less than 0% by weight and less than 10% by weight) | Herbicidal activity Glycine max (soybean (Glycine max) [8]): 0 (herbicidal effect of not less than 0% by weight and less than 10% by weight) | Herbicidal activity Oryza sativa [9]: 0 (herbicidal effect of not less than 0% by weight and less than 10% by weight) | Herbicidal activity Chenopodium album (Chenopodium album [10]): 5 (herbicidal effect of not less than 90% by weight) | Herbicidal activity Setaria viridis (Setaria viridis [11]): 5 (herbicidal effect of not less than 90% by weight) | Herbicidal activity Stellaria media (Stellaria media [12]): 5 (herbicidal effect of not less than 90% by weight) | Herbicidal activity Digitaria adscendens (Digitaria adscendens [13]): 5 (herbicidal effect of not less than 90% by weight)

COC=C(Cn1cc(C)c(-c2ccc(F)cc2)n1)C(=O)OC [Compound 14]
Herbicidal activity Triticum aestivum [1]: 0 (herbicidal effect of not less than 0% by weight and less than 10% by weight) | Herbicidal activity Glycine max (soybean (Glycine max) [2]): 0 (herbicidal effect of not less than 0% by weight and less than 10% by weight) | Herbicidal activity Ammannia multiflora (Ammannia multiflora): 5 (herbicidal effect of not less than 90% by weight) | Herbicidal activity Monochoria vaginalis (Monochoria vaginalis): 5 (herbicidal effect of not less than 90% by weight) | Herbicidal activity Scirpus juncoides (Scirpus juncoides): 5 (herbicidal effect of not less than 90% by weight) | Herbicidal activity Chenopodium album (Chenopodium album [3]): 5 (herbicidal effect of not less than 90% by weight) | Herbicidal activity Setaria viridis (Setaria viridis [4]): 5 (herbicidal effect of not less than 90% by weight) | Herbicidal activity Stellaria media (Stellaria media [5]): 5 (herbicidal effect of not less than 90% by weight) | Herbicidal activity Digitaria adscendens (Digitaria adscendens [6]): 5 (herbicidal effect of not less than 90% by weight) | Herbicidal activity Echinochloa spp. (Echinochloa spp.): 5 (herbicidal effect of not less than 90% by weight) | Herbicidal activity Triticum aestivum [7]: 0 (herbicidal effect of not less than 0% by weight and less than 10% by weight) | Herbicidal activity Glycine max (soybean (Glycine max) [8]): 0 (herbicidal effect of not less than 0% by weight and less than 10% by weight) | Herbicidal activity Oryza sativa [9]: 0 (herbicidal effect of not less than 0% by weight and less than 10% by weight) | Herbicidal activity Chenopodium album (Chenopodium album [10]): 5 (herbicidal effect of not less than 90% by weight) | Herbicidal activity Setaria viridis (Setaria viridis [11]): 5 (herbicidal effect of not less than 90% by weight) | Herbicidal activity Stellaria media (Stellaria media [12]): 5 (herbicidal effect of not less than 90% by weight) | Herbicidal activity Digitaria adscendens (Digitaria adscendens [13]): 5 (herbicidal effect of not less than 90% by weight)

COC=C(Cn1cc(Cl)c(-c2ccccc2)n1)C(=O)OC [Compound 15]
Herbicidal activity Triticum aestivum [1]: 0 (herbicidal effect of not less than 0% by weight and less than 10% by weight) | Herbicidal activity Glycine max (soybean (Glycine max) [2]): 0 (herbicidal effect of not less than 0% by weight and less than 10% by weight) | Herbicidal activity Ammannia multiflora (Ammannia multiflora): 5 (herbicidal effect of not less than 90% by weight) | Herbicidal activity Monochoria vaginalis (Monochoria vaginalis): 5 (herbicidal effect of not less than 90% by weight) | Herbicidal activity Scirpus juncoides (Scirpus juncoides): 5 (herbicidal effect of not less than 90% by weight) | Herbicidal activity Chenopodium album (Chenopodium album [3]): 5 (herbicidal effect of not less than 90% by weight) | Herbicidal activity Setaria viridis (Setaria viridis [4]): 5 (herbicidal effect of not less than 90% by weight) | Herbicidal activity Stellaria media (Stellaria media [5]): 5 (herbicidal effect of not less than 90% by weight) | Herbicidal activity Digitaria adscendens (Digitaria adscendens [6]): 5 (herbicidal effect of not less than 90% by weight) | Herbicidal activity Echinochloa spp. (Echinochloa spp.): 5 (herbicidal effect of not less than 90% by weight) | Herbicidal activity Triticum aestivum [7]: 0 (herbicidal effect of not less than 0% by weight and less than 10% by weight) | Herbicidal activity Glycine max (soybean (Glycine max) [8]): 1 (herbicidal effect of not less than 10% by weight and less than 30% by weight) | Herbicidal activity Oryza sativa [9]: 0 (herbicidal effect of not less than 0% by weight and less than 10% by weight) | Herbicidal activity Chenopodium album (Chenopodium album [10]): 5 (herbicidal effect of not less than 90% by weight) | Herbicidal activity Setaria viridis (Setaria viridis [11]): 5 (herbicidal effect of not less than 90% by weight) | Herbicidal activity Stellaria media (Stellaria media [12]): 5 (herbicidal effect of not less than 90% by weight) | Herbicidal activity Digitaria adscendens (Digitaria adscendens [13]): 5 (herbicidal effect of not less than 90% by weight)

COC=C(Cn1cc(Cl)c(-c2cccc(OC)c2)n1)C(=O)OC [Compound 16]
Herbicidal activity Triticum aestivum [1]: 0 (herbicidal effect of not less than 0% by weight and less than 10% by weight) | Herbicidal activity Glycine max (soybean (Glycine max) [2]): 0 (herbicidal effect of not less than 0% by weight and less than 10% by weight) | Herbicidal activity Ammannia multiflora (Ammannia multiflora): 5 (herbicidal effect of not less than 90% by weight) | Herbicidal activity Monochoria vaginalis (Monochoria vaginalis): 5 (herbicidal effect of not less than 90% by weight) | Herbicidal activity Scirpus juncoides (Scirpus juncoides): 5 (herbicidal effect of not less than 90% by weight) | Herbicidal activity Chenopodium album (Chenopodium album [3]): 5 (herbicidal effect of not less than 90% by weight) | Herbicidal activity Setaria viridis (Setaria viridis [4]): 5 (herbicidal effect of not less than 90% by weight) | Herbicidal activity Stellaria media (Stellaria media [5]): 5 (herbicidal effect of not less than 90% by weight) | Herbicidal activity Digitaria adscendens (Digitaria adscendens [6]): 5 (herbicidal effect of not less than 90% by weight) | Herbicidal activity Echinochloa spp. (Echinochloa spp.): 5 (herbicidal effect of not less than 90% by weight) | Herbicidal activity Triticum aestivum [7]: 0 (herbicidal effect of not less than 0% by weight and less than 10% by weight) | Herbicidal activity Glycine max (soybean (Glycine max) [8]): 1 (herbicidal effect of not less than 10% by weight and less than 30% by weight) | Herbicidal activity Oryza sativa [9]: 0 (herbicidal effect of not less than 0% by weight and less than 10% by weight) | Herbicidal activity Chenopodium album (Chenopodium album [10]): 4 (herbicidal effect of not less than 70% by weight and less than 90% by weight) | Herbicidal activity Setaria viridis (Setaria viridis [11]): 5 (herbicidal effect of not less than 90% by weight) | Herbicidal activity Stellaria media (Stellaria media [12]): 5 (herbicidal effect of not less than 90% by weight) | Herbicidal activity Digitaria adscendens (Digitaria adscendens [13]): 5 (herbicidal effect of not less than 90% by weight)

COC=C(Cn1nc(-c2cccc(C)c2)c(Cl)c1C)C(=O)OC [Compound 17]
Herbicidal activity Triticum aestivum [1]: 0 (herbicidal effect of not less than 0% by weight and less than 10% by weight) | Herbicidal activity Glycine max (soybean (Glycine max) [2]): 0 (herbicidal effect of not less than 0% by weight and less than 10% by weight) | Herbicidal activity Ammannia multiflora (Ammannia multiflora): 5 (herbicidal effect of not less than 90% by weight) | Herbicidal activity Monochoria vaginalis (Monochoria vaginalis): 5 (herbicidal effect of not less than 90% by weight) | Herbicidal activity Scirpus juncoides (Scirpus juncoides): 4 (herbicidal effect of not less than 70% by weight and less than 90% by weight) | Herbicidal activity Chenopodium album (Chenopodium album [3]): 5 (herbicidal effect of not less than 90% by weight) | Herbicidal activity Setaria viridis (Setaria viridis [4]): 5 (herbicidal effect of not less than 90% by weight) | Herbicidal activity Stellaria media (Stellaria media [5]): 5 (herbicidal effect of not less than 90% by weight) | Herbicidal activity Digitaria adscendens (Digitaria adscendens [6]): 4 (herbicidal effect of not less than 70% by weight and less than 90% by weight) | Herbicidal activity Echinochloa spp. (Echinochloa spp.): 5 (herbicidal effect of not less than 90% by weight) | Herbicidal activity Triticum aestivum [7]: 0 (herbicidal effect of not less than 0% by weight and less than 10% by weight) | Herbicidal activity Glycine max (soybean (Glycine max) [8]): 0 (herbicidal effect of not less than 0% by weight and less than 10% by weight) | Herbicidal activity Oryza sativa [9]: 0 (herbicidal effect of not less than 0% by weight and less than 10% by weight) | Herbicidal activity Chenopodium album (Chenopodium album [10]): 4 (herbicidal effect of not less than 70% by weight and less than 90% by weight) | Herbicidal activity Setaria viridis (Setaria viridis [11]): 4 (herbicidal effect of not less than 70% by weight and less than 90% by weight) | Herbicidal activity Stellaria media (Stellaria media [12]): 4 (herbicidal effect of not less than 70% by weight and less than 90% by weight) | Herbicidal activity Digitaria adscendens (Digitaria adscendens [13]): 4 (herbicidal effect of not less than 70% by weight and less than 90% by weight)

— patent publication US6809065B2, “Herbicide containing substituted pyrazole derivative as active ingredient” (SDS Biotech K.K., priority 2001, dated 2004)
